Experimental findings from PubChem BioAssay AID330 (DTP/NCI, 2004) are described below.

In this assay the test system is P388 leukemia ip, CD2F1 mice, survival T/C. The experiment in a line: NCI In Vivo Anticancer Drug Screen. Data for tumor model P388 Leukemia (intraperitoneal) in CD2F1 (CDF1) mice. The conditions noted are these: endpoint: median survival time, higher = longer survival. An outline of the steps:
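Mice carrying the transplanted tumor received test compound or vehicle. Survival was recorded in each group, and the value is the treated-group measurement divided by that of the vehicle-treated control group.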

The mark [1] stands for this setting: dose: 50.0 mg/kg/injection, schedule: Q04DX002 (ip), vehicle: saline with Tween-80.
The mark [2] stands for this setting: dose: 50.0 mg/kg/injection, schedule: Q01DX009 (ip), vehicle: suspension in saline.
[3] abbreviates: dose: 100.0 mg/kg/injection, schedule: Q01DX009 (ip), vehicle: suspension in saline.
[4] abbreviates: dose: 200.0 mg/kg/injection, schedule: Q01DX009 (ip), vehicle: suspension in saline.
[5] abbreviates: dose: 50.0 mg/kg/injection, schedule: Q01DX005 (ip), vehicle: saline with Tween-80.
Where [6] appears, read: dose: 100.0 mg/kg/injection, schedule: Q01DX005 (ip), vehicle: saline with Tween-80.
The mark [7] stands for this setting: dose: 12.5 mg/kg/injection, schedule: Q01DX009 (ip), vehicle: saline with Tween-80.
Setting [8] is: dose: 25.0 mg/kg/injection, schedule: Q01DX009 (ip), vehicle: saline with Tween-80.
Setting [9] is: dose: 50.0 mg/kg/injection, schedule: Q01DX009 (ip), vehicle: saline with Tween-80.
[10] abbreviates: dose: 100.0 mg/kg/injection, schedule: Q01DX009 (ip), vehicle: saline with Tween-80.
Setting [11] is: dose: 50.0 mg/kg/injection, schedule: Q01DX005 (ip), vehicle: Klucel (hydroxypropylcellulose) (HPC).
[12] abbreviates: dose: 100.0 mg/kg/injection, schedule: Q01DX005 (ip), vehicle: Klucel (hydroxypropylcellulose) (HPC).
The mark [13] stands for this setting: dose: 200.0 mg/kg/injection, schedule: Q01DX005 (ip), vehicle: Klucel (hydroxypropylcellulose) (HPC).

Where “and” joins values, the source holds several entries; their conditions need not be identical. Equal entries are not always repeated. Inconclusive results and toxic doses are left out. Square brackets hold non-standard residues; d marks the D form. Peptide text beside a SMILES is read from it. * marks the point of attachment. ξ: configuration not given here. Cbz = O=C(OCc1ccccc1)*; ξNva = CCCC(N)C(=O)O

As to `O=C(Nc1ccccc1C(F)(F)F)c1cccc(Cl)c1`, the T/C was 109 % of control (dose: 100.0 mg/kg/injection, schedule: Q04DX003 (ip), vehicle: saline + alcohol); 100 % of control (dose: 200.0 mg/kg/injection, schedule: Q04DX003 (ip), vehicle: saline + alcohol); 100 % of control (dose: 400.0 mg/kg/injection, schedule: Q04DX003 (ip), vehicle: saline + alcohol).
For the compound `NC(=O)c1sc(SCc2ccccc2)c(-[n+]2ccccc2)c1N`, the T/C is 105 % of control (dose: 25.0 mg/kg/injection, schedule: Q04DX002 (ip), vehicle: saline with Tween-80) and 105 % of control under setting [1].
Consider `N/C=C1\Cc2ccccc2C1=O`, for which the T/C is, setting by setting: under setting [2], 95 % of control; under setting [3], 98 % of control; under setting [4], 104 % of control.
On to `O=C(/C=N/O)Nc1cccnc1`, for which the T/C (dose: 50.0 mg/kg/injection, schedule: Q01DX009 (ip), vehicle: Klucel (hydroxypropylcellulose) (HPC)) is 109 % of control; the T/C (dose: 100.0 mg/kg/injection, schedule: Q01DX009 (ip), vehicle: Klucel (hydroxypropylcellulose) (HPC)) is 109 % of control; the T/C (dose: 200.0 mg/kg/injection, schedule: Q01DX009 (ip), vehicle: Klucel (hydroxypropylcellulose) (HPC)) is 109 % of control.
Regarding `COc1ccc(C(NC(N)=O)c2cc3c(cc2OC(C)=O)OCO3)cc1` (centres undefined), the T/C is 98 % of control (dose: 60.0 mg/kg/injection, schedule: Q01DX005 (ip), vehicle: Klucel (hydroxypropylcellulose) (HPC)); 92 % of control (dose: 120.0 mg/kg/injection, schedule: Q01DX005 (ip), vehicle: Klucel (hydroxypropylcellulose) (HPC)); 93 % of control (dose: 240.0 mg/kg/injection, schedule: Q01DX005 (ip), vehicle: Klucel (hydroxypropylcellulose) (HPC)).
Regarding `CCOC(=O)C(=O)C(C#N)c1ccccc1CC#N` (centres undefined), the T/C reads like this: under setting [5], 109 % of control; under setting [6], 97 % of control.
For the compound `C/C=C\C1OC1(C)c1cc(=O)c2c(C)cc3c(c2o1)C(=O)c1c(O)c(C2CC(C)(N(C)C)C(OC(C)=O)C(C)O2)cc(C2CC(N(C)C)C(O)C(C)O2)c1C3=O` (centres undefined), the T/C was 122 % of control (dose: 1.0 mg/kg/injection, schedule: Q01DX009 (ip), vehicle: saline + alcohol); 154 % of control (dose: 1.0 mg/kg/injection, schedule: Q01DX010 (ip), vehicle: saline); 95 % of control (dose: 2.0 mg/kg/injection, schedule: Q01DX010 (ip), vehicle: saline).
Turning to `O=C1c2ccsc2C(=O)c2ccsc21`, the T/C was 101 % of control under setting [7], 105 % of control under setting [8], 101 % of control under setting [9] and 99 % of control under setting [10].
Consider `COc1ccc2c(c1OC)CC(C(=O)O)=C2C`, for which the T/C under setting [5] was 99 % of control; the T/C under setting [6] was 94 % of control; the T/C (dose: 200.0 mg/kg/injection, schedule: Q01DX005 (ip), vehicle: saline with Tween-80) was 99 % of control.
As to `O=NNc1ccc(S(=O)(=O)c2ccccc2)cn1`, the T/C was 98 % of control (dose: 3.12 mg/kg/injection, schedule: Q01DX009 (ip), vehicle: sodium bicarbonate); 98 % of control (dose: 6.25 mg/kg/injection, schedule: Q01DX009 (ip), vehicle: sodium bicarbonate); 94 % of control and 96 % of control (dose: 12.5 mg/kg/injection, schedule: Q01DX009 (ip), vehicle: sodium bicarbonate); 100 % of control and 104 % of control (dose: 25.0 mg/kg/injection, schedule: Q01DX009 (ip), vehicle: sodium bicarbonate); 109 % of control (dose: 50.0 mg/kg/injection, schedule: Q01DX009 (ip), vehicle: sodium bicarbonate); 160 % of control (dose: 100.0 mg/kg/injection, schedule: Q01DX009 (ip), vehicle: sodium bicarbonate).
On to `O=C(O)CC(=O)O.[NH-]C1CCCC1[NH-].[Pt+2]`, for which the T/C is, setting by setting: (dose: 6.25 mg/kg/injection, schedule: Q04DX002 (ip), vehicle: saline) 114 % of control; under setting [1], 169 % of control; (dose: 100.0 mg/kg/injection, schedule: Q04DX002 (ip), vehicle: saline with Tween-80) 185 % of control; (dose: 200.0 mg/kg/injection, schedule: Q04DX002 (ip), vehicle: saline with Tween-80) 197 % of control.
Regarding `CCc1nc2ccccc2c(=O)n1C`, the T/C was 100 % of control under setting [7], 100 % of control under setting [8] and 95 % of control under setting [9].
Consider `[Cl][Sn]([Cl])([c]1ccccc1)[c]1ccccc1.c1ccc(-c2nnc(-c3ccccn3)nc2-c2ccccc2)cc1`, for which the T/C runs as follows: (dose: 0.79 mg/kg/injection, schedule: Q01DX005 (ip), vehicle: Klucel (hydroxypropylcellulose) (HPC)) 101 % of control and 120 % of control; (dose: 1.56 mg/kg/injection, schedule: Q01DX005 (ip), vehicle: Klucel (hydroxypropylcellulose) (HPC)) 120 % of control; (dose: 3.12 mg/kg/injection, schedule: Q01DX005 (ip), vehicle: Klucel (hydroxypropylcellulose) (HPC)) 123 % of control.
On to `CS(=O)(=O)C(=C1C(=O)NC(=O)NC1=O)S(C)(=O)=O`, for which the T/C is 98 % of control (dose: 12.5 mg/kg/injection, schedule: Q01DX005 (ip), vehicle: Klucel (hydroxypropylcellulose) (HPC)); 100 % of control (dose: 25.0 mg/kg/injection, schedule: Q01DX005 (ip), vehicle: Klucel (hydroxypropylcellulose) (HPC)); 107 % of control and 109 % of control under setting [11].
In the case of `COc1cc(C(Nc2ncccn2)c2cc3c(cc2O)OCO3)cc(OC)c1OC` (centres undefined), the T/C was 100 % of control (dose: 60.0 mg/kg/injection, schedule: Q01DX005 (ip), vehicle: saline with Tween-80); 92 % of control (dose: 120.0 mg/kg/injection, schedule: Q01DX005 (ip), vehicle: saline with Tween-80); 90 % of control (dose: 240.0 mg/kg/injection, schedule: Q01DX005 (ip), vehicle: saline with Tween-80).
Consider `CC(=O)c1ccc(NC(=O)C#N)cc1`, for which the T/C runs as follows: (dose: 7.5 mg/kg/injection, schedule: Q01DX005 (ip), vehicle: saline with Tween-80) 104 % of control; (dose: 15.0 mg/kg/injection, schedule: Q01DX005 (ip), vehicle: saline with Tween-80) 110 % of control.
In the case of `CCCC(NC(=O)OCc1ccccc1)C(=O)NCC(N)=O` (centres undefined) (Cbz-[ξNva]-Gly-NH2), the T/C under setting [11] was 103 % of control, the T/C under setting [12] was 100 % of control and the T/C under setting [13] is 100 % of control.
In the case of `O=C(CC(=O)c1ccccc1F)Nc1ccc([N+](=O)[O-])cc1`, the T/C is 100 % of control under setting [7]; 100 % of control under setting [8]; 95 % of control under setting [9]; 90 % of control (dose: 100.0 mg/kg/injection, schedule: Q04DX003 (ip), vehicle: saline with Tween-80); 95 % of control (dose: 200.0 mg/kg/injection, schedule: Q04DX003 (ip), vehicle: saline with Tween-80); 100 % of control (dose: 400.0 mg/kg/injection, schedule: Q04DX003 (ip), vehicle: saline with Tween-80).
Turning to `CCOC(=O)C(CCC[n+]1cc2ccccc2c2ccccc21)C(=O)OCC`, the T/C is, setting by setting: (dose: 50.0 mg/kg/injection, schedule: Q01DX005 (ip), vehicle: saline) 106 % of control; (dose: 100.0 mg/kg/injection, schedule: Q01DX005 (ip), vehicle: saline) 101 % of control; (dose: 200.0 mg/kg/injection, schedule: Q01DX005 (ip), vehicle: saline) 101 % of control.
`O=C(CCl)NC(=O)CCl`: the T/C under setting [8] is 90 % of control.
Regarding `C[N+](C)(C)CCCO`, the T/C (dose: 12.5 mg/kg/injection, schedule: Q01DX009 (ip), vehicle: saline) was 98 % of control; the T/C (dose: 25.0 mg/kg/injection, schedule: Q01DX009 (ip), vehicle: saline) is 94 % of control; the T/C (dose: 50.0 mg/kg/injection, schedule: Q01DX009 (ip), vehicle: saline) was 93 % of control.
In the case of `Cc1cccc2ncc([N+](=O)[O-])n12`, the T/C is 114 % of control and 88 % of control under setting [9]; 102 % of control and 89 % of control under setting [10].
As for `O=C(NC(Cc1ccccc1)C(=O)O)C(Cl)Cl` (centres undefined), the T/C reads like this: under setting [11], 91 % of control; under setting [12], 100 % of control; under setting [13], 100 % of control.
Turning to `CCC(C)(Oc1ccc(Cc2ccc(Cl)cc2)cc1)C(=O)OCc1cccnc1` (centres undefined), the T/C reads like this: under setting [2], 95 % of control; under setting [3], 95 % of control; under setting [4], 94 % of control.
